# Measured values from patent US10065927B2, “α-ketoacylic isoniazid compounds, process for producing said compounds, use of the compounds in the treatment of tuberculosis” (priority 2015, dated 2018).
# Test system: M. tuberculosis isoniazid resistant strain
# Assay: microbe, parasite or virus in culture
# Format: cell-based
# Details: Mycobacterium tuberculosis
row,SMILES,MIC [µM]
1,"CC(=O)Nc1ccccc1C(=O)C(=O)NNC(=O)c1ccncc1 [Compound 2, N-(2-(2-(2-Isonicotinoylhydrazine)-2-Oxoacetyl)Phenyl) Acetamide]",19.2
2,NNC(=O)c1ccncc1 [Isoniazid],> 73
